According to ChEMBL document CHEMBL4433239, “Synthesis of N'-propylhydrazide analogs of hydroxamic inhibitors of histone deacetylases (HDACs) and evaluation of their impact on activities of HDACs and replication of hepatitis C virus (HCV)” (Bioorg Med Chem Lett, 2019):
Active and inactive are the calls of the source. No cut-off for these calls is given here.

What was measured:
[1] = Cytotoxicity against human HuH7 cells assessed as reduction in cell viability incubated for 3 days by MTT assay; type: cell-based, Huh-7
[2] = Therapeutic index, ratio of CC50 for human HuH7 cells to EC50 for antiviral activity against HCV infected in human HuH7-luc/neo cells assessed as inhibition of DNA replication i
Hepatitis C virus = experiment: Antiviral activity against HCV infected in human HuH7-luc/neo cells assessed as inhibition of DNA replication incubated for 3 days by luciferase reporter gene assay; type: functional, organism-based, Hepacivirus hominis; details: 72 h
[3] = target: Histone deacetylase 3 (Homo sapiens) (UniProt O15379); experiment: Inhibition of HDAC3 in human Huh7-luc/neo cells assessed as increase in histone H3 K9 acetylation incubated for 24 hrs by Western blot analysis
Sequence of Histone deacetylase 3 (Homo sapiens) (O15379 whole entry): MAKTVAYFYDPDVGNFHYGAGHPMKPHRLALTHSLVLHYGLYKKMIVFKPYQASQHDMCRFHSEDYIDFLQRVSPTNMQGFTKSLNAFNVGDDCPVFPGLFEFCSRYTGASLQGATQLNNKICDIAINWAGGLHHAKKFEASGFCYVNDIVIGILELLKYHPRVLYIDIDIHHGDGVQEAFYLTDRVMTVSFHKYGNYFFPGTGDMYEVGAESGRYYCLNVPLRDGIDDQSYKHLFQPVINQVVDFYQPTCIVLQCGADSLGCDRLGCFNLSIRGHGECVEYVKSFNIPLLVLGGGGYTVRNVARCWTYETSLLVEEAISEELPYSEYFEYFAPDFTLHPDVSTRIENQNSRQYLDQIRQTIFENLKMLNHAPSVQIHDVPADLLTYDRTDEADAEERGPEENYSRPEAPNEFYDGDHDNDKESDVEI

[4] = target: T1, Protein deacetylase HDAC6 (Homo sapiens, UniProt Q9UBN7); experiment: Inhibition of human recombinant HDAC 6 by HDAC-Glo luminescent assay
T1 sequence (Q9UBN7 whole entry): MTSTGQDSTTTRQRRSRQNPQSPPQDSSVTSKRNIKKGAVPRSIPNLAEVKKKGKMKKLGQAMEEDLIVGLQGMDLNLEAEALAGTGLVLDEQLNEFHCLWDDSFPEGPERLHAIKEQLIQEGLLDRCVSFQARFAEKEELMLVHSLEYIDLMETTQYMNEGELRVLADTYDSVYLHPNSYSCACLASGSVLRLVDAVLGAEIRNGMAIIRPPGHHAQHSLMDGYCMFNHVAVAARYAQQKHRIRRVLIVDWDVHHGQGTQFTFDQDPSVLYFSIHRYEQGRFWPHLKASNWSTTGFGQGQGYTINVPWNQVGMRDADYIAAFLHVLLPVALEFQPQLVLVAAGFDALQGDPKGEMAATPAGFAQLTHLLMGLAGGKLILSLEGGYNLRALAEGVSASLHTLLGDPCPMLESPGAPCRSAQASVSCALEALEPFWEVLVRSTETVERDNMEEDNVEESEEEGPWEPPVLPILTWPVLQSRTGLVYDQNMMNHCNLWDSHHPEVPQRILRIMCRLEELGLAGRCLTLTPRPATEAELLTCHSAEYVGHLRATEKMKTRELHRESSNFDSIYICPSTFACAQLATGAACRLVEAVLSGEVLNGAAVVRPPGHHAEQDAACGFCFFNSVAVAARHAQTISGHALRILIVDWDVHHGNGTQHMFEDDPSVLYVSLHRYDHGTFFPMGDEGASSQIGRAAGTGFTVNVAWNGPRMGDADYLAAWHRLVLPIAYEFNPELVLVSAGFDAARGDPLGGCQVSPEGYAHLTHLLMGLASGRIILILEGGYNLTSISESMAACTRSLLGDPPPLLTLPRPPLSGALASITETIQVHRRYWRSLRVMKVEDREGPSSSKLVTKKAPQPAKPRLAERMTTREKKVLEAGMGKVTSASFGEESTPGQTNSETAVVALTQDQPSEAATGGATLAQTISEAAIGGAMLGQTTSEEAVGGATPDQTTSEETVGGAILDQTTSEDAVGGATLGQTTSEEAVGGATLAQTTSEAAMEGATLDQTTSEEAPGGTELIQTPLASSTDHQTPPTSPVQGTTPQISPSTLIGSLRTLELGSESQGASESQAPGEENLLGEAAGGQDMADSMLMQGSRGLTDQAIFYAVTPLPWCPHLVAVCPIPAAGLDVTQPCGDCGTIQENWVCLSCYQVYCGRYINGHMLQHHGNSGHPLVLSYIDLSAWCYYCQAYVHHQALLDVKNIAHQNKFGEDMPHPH

[5] = HuH7 cells (CC50) and HCV-infected HuH7-luc/neo cells (EC50)

EC50 (Hepatitis C virus)	inhibition [3]	IC50 [4]	Structure (SMILES)	CC50 at 72 h [1]	selectivity ratio [2]	selectivity ratio [2, 5]
0.3 µM	–	–	CN1CCc2c(c3ccccc3n2Cc2ccc(C(=O)NO)cc2)C1 [TUBASTATIN A]	[…]	[…]	–
0.75 µM	–	–	O=C(NO)C1c2ccccc2Oc2ccccc21	300 µM	–	400
1.5 µM	–	–	CCCNNC(=O)c1ccc(-c2ccccc2)cc1	5.9 µM	–	3.9
0.19 µM	–	–	O=C(/C=C/c1cccc(S(=O)(=O)Nc2ccccc2)c1)NO [BELINOSTAT]	0.65 µM	–	–
1.3 µM	–	–	CCCNNC(=O)CCCCCCC(=O)Nc1ccccc1	7 µM	–	5.4
–	–	–	CCCNNC(=O)C1c2ccccc2Oc2ccccc21	> 300 µM	–	–
4.5 µM	Active	–	O=C(NCC1(c2nc(-c3ccccc3)cs2)CCOCC1)c1cccc(-c2noc(C(F)(F)F)n2)c1	83 µM	18	–
0.4 µM	–	–	O=C(NO)c1ccc(-c2ccccc2)cc1	30 µM	–	75
0.24 µM	–	–	CCCNNC(=O)c1ccc(Cn2c3c(c4ccccc42)CN(C)CC3)cc1	5.3 µM	–	22
–	–	–	CCNNC(=O)c1ccccc1	> 1000 µM	–	–
–	–	–	CNNC(=O)c1ccccc1	> 1000 µM	–	–
2 µM	–	–	O=C(/C=C/c1ccccc1)NO	20 µM	10	–
5.4 µM	–	–	CCCNNC(=O)/C=C/c1ccccc1	18 µM	–	3.3
0.025 µM	–	–	CCCNNC(=O)c1ccc(Cn2c(C)nc3ccccc32)cc1	9.9 µM	–	400
3.8 µM	–	–	CCCNNC(=O)CCc1ccccc1	96 µM	–	25
–	–	30 µM	N[C@H](Cc1ccc(Cl)cc1Cl)C(=O)N1Cc2ccccc2C1	–	–	–
0.27 µM	–	–	Cc1nc2ccccc2n1Cc1ccc(C(=O)NO)cc1	7.9 µM	–	29
5.5 µM	–	–	CCCNNC(=O)c1ccccc1	120 µM	–	22
0.55 µM	–	–	CCCNNC(=O)/C=C/c1cccc(S(=O)(=O)Nc2ccccc2)c1	0.68 µM	–	1.2
5.2 µM	–	–	O=C(CCc1ccccc1)NO	110 µM	–	21
–	–	–	O=C(CCCCCCC(=O)Nc1ccccc1)NO [VORINOSTAT]	0.64 µM	–	–
